Consider ten compounds from patent US6841561B1, “Dihydroorotate dehydrogenase inhibitors for the treatment of viral-mediated diseases” (priority 1999, dated 2005).

SMILES strings stand for the structures. pEC50: −log10 of the molar value. Where “and” joins values, the source holds several entries; their conditions need not be identical. Equal values may be shown once. Read-outs that look alike come from different tables or passages of the source.

Data set [1] has as its system yellow fever virus. The data set can be described thus: microbe, parasite or virus in culture.
For data set [2], the system named is vesicular stomatitis virus. Description: microbe, parasite or virus in culture.
The test system of data set [3] is kunjin virus. The data set can be described thus: microbe, parasite or virus in culture. Type of data set: cell-based. Conditions: West Nile virus.
Data set [4] relates to dengue virus. The data set can be described thus: microbe, parasite or virus in culture. It counts as cell-based. Conditions: Vero.
Data set [5] deals with yellow fever virus. The data set can be described thus: in vitro.
The subject of data set [6] is hepatitis C. Conditions: patients with chronic hepatitis C; in combination with interferon; cited from earlier work.
The test system of data set [7] is yellow fever virus. Type of data set: cell-based.
Data set [8] concerns kunjin virus. It counts as cell-based.
Data set [9] relates to VSV. Type of data set: cell-based, vesicular stomatitis virus.
The test system of data set [10] is dengue virus. Type of data set: cell-based.
Data set [11] relates to vesicular stomatitis virus. The data set can be described thus: in vitro. To be noted: human.
Data set [12] deals with respiratory syncytial virus. The data set can be described thus: microbe, parasite or virus in culture. It counts as cell-based. Conditions: human respiratory syncytial virus, Vero, read-out: ED50 RSV VERO.

`COc1cc(-c2ccc(Nc3ccccc3C(=O)O)c(OC)c2)ccc1Nc1ccccc1C(=O)O` [Redoxal]: the pEC50 in data set [1] (Huh-7, read-out: ED50) was 6.20; in [1] (Vero, read-out: ED50), 6.60; in data set [2] (Huh-7, read-out: ED50) it was 6.20; in [3] (Huh-7, read-out: ED50), 6.28; in data set [3] (Vero, read-out: ED50) it was 6.41; in data set [4] (read-out: ED50), 6.41.
On to `NC(=O)c1ncn([C@@H]2O[C@H](CO)[C@@H](O)[C@H]2O)n1` [Ribavirin], for which the pEC50 in data set [1] (Huh-7, read-out: ED50) is 4.47; in data set [1] (Vero, read-out: ED50), 3.69; in [2] (Huh-7, read-out: ED50), 3.60; in data set [2] (MRC5, read-out: ED50), 3.92; in data set [3] (Huh-7, read-out: ED50) it was 4.22; in data set [3] (Vero, read-out: ED50) it was 3.51. Also, in [4] (read-out: ED50), the pEC50 is 3.49. Further, the figures for the selectivity ratio in data set [5] (human) and in [5] (monkey) were 70 and 36, respectively. Besides, in data set [6], the combined treatment efficacy result is “up to 40%”.
For the compound `Cc1c(-c2ccc(-c3ccccc3)cc2)nc2ccc(OC(F)(F)F)cc2c1C(=O)O` [I2K55, 2-(4-biphenylyl)-3-methyl-6-trifluoromethoxy-quinoline-4-carboxylic acid], the pEC50 in [1] (Huh-7, read-out: ED50 YFV HuH7) is 5.21; in data set [1] (Vero, read-out: ED50 YFV VERO), 4.93; in data set [3] (Huh-7, read-out: ED50 KUN HuH7), 5.24; in [4] (read-out: ED50 DEN VERO), 4.93.
For `O=C1C(O)=C(CC=C(Cl)Cl)C(=O)c2ccccc21` [Dichloroallyl lawsone, dichloroallyl lawsone], the pEC50 is 5.96 in [1] (Huh-7, read-out: ED50); 6.05 in data set [1] (Vero, read-out: ED50); 6.31 in [2] (Huh-7, read-out: ED50); 6.11 in [3] (Huh-7, read-out: ED50).
Turning to `COc1c(-c2cc(C(=O)O)c3cc(OC(F)(F)F)ccc3n2)ccc(OCc2ccccc2)c1C` [I2K51, 2-(4-benzyloxy-2-methoxy-3-methyl-phenyl)-6-trifluoromethoxy-quinoline-4-carboxylic acid], the pEC50 in data set [1] (Vero, read-out: ED50 YFV VERO) was 5.89; in data set [4] (read-out: ED50 DEN VERO), 5.59.
As to `Cc1nc2c(n1-c1ccc(Br)cc1)C(=O)c1ccccc1C2=O` [BNID, 1-(p-bromophenyl)-2-methyl-1H-naphth[2,3-d]imidazole-4,9-dione], the Fold enhancement in data set [7] is 10 fold and 5 fold; in data set [8], 6 fold. Besides, the pEC50 was 5.94 in data set [1] (Huh-7, read-out: ED50); 5.90 in data set [1] (Vero, read-out: ED50); 6.19 in data set [2] (Huh-7, read-out: ED50); 5.94 in data set [3] (Huh-7, read-out: ED50); 5.98 in data set [3] (Vero, read-out: ED50); 5.90 in [4] (read-out: ED50).
Consider `O=C(O)c1cc(-c2ccc(C3CCCCC3)cc2)nc2ccc(OC(F)(F)F)cc12` [I2K46, 2-(4-cyclohexylphenyl)-6-trifluoromethoxy-quinoline-4-carboxylic acid], for which the pEC50 in data set [1] (Huh-7, read-out: ED50 YFV HuH7) was 5.29; in data set [3] (Huh-7, read-out: ED50 KUN HuH7), 5.20.
Taken in the same sequence, the figures for `O=C(O)c1cc(-c2ccc(Oc3ccccc3)cc2)nc2ccc(OC(F)(F)F)cc12` [I2K52, 2-(4-phenoxyphenyl)-6-trifluoromethoxy-quinoline-4-carboxylic acid] were 4.95 and 5.02.
In the case of `Cc1c(-c2ccc(-c3ccccc3F)cc2)nc2ccc(F)cc2c1C(=O)[O-].[Na+]` [Brequinar, 6-fluoro-2-(2′-fluoro-1,1′-biphenyl-4-yl)-3-methyl-4′-quinolinecarboxylic acid sodium salt], the pEC50 is 7.30 in data set [1] (Huh-7, read-out: ED50); 7.52 in [1] (Huh-7, read-out: ED50 YFV HuH7); 7.70 in data set [1] (Vero, read-out: ED50); 7.70 in data set [1] (Vero, read-out: ED50 YFV VERO); 7.85 in [2] (Huh-7, read-out: ED50); 7.10 in data set [2] (Huh-7, read-out: ED50 VSV HuH7). Further, the pEC50 was 7.52 in data set [3] (Huh-7, read-out: ED50); 7.40 in [3] (Huh-7, read-out: ED50 KUN HuH7); 7.70 in [3] (Vero, read-out: ED50); 7.70 in [12]; 7.70 in data set [4] (read-out: ED50); 7.40 in [4] (read-out: ED50 DEN VERO). The Fold enhancement is reported as 266 fold in data set [9], 10 fold in data set [10] and 4.5 fold in [8]. The values for the selectivity ratio in data set [5] (human), in data set [5] (monkey) and in [11] were 60, 2670 and 2100, respectively.
Regarding `O=C(O)c1cc(-c2ccc(-c3ccccc3)cc2)nc2ccc(OC(F)(F)F)cc12` [I2K5, 2-(4-biphenylyl)-6-trifluoromethoxy-quinoline-4-carboxylic acid], in data set [7], the Fold enhancement worked out at 3 fold. Also, the pEC50 was 5.77 in [1] (Huh-7, read-out: ED50 YFV HuH7); 6.10 in data set [1] (Vero, read-out: ED50 YFV VERO); 5.70 in [3] (Huh-7, read-out: ED50 KUN HuH7); 6.10 in [4] (read-out: ED50 DEN VERO).
